Test results taken from ChEMBL document CHEMBL2021794, “Synthesis, σ₁, σ₂-receptors binding affinity and antiproliferative action of new C1-substituted adamantanes” (Bioorg Med Chem, 2012).
Activity calls are given as the source filed them. The rule behind the calls is not given here.

Legend:
BXPC-3 [1] = assay: Antitumor activity against human BxPC3 cells xenografted in SCID mouse assessed as reduction in tumor volume at 40 mg/kg, ip for 5 consecutive days and 2 administrations for one more week; type: functional; settings: BXPC-3, ip, route intraperitoneal
HCT-15 = assay: Cytotoxicity against human HCT15 cells after 48 hrs by trypan blue assay; type: functional, cell-based
HCT-116 [2] = assay: Cytotoxicity against human HCT116 cells after 48 hrs by trypan blue assay; type: functional, cell-based
PC-3 [3] = assay: Cell cycle arrest in human PC3 cells assessed as accumulation at G2 phase at 15 uM after 24 hrs by propidium iodide staining based flow cytometry (reference value: 13%); type: functional
Mus musculus [4] = assay: Toxicity in CD1 mouse assessed as mortality at 40 mg/kg, ip after 3 to 4 weeks chronic treatment; type: organism-based; set-up: dose 40 mg/kg, route intraperitoneal; settings: in vivo
IGROV-1 [5] = assay: Induction of apoptosis in human IGROV1 cells assessed as healthy cells at 50 uM after 24 hrs by Annexin V/7-AAD staining based flow cytometry (reference value: 86%); type: functional
MCF7 = assay: Growth inhibition of human MCF7 cells after 48 hrs by SRB assay; type: functional; settings: MCF7, 48 h
PC-3 [6] = assay: Cell cycle arrest in human PC3 cells assessed as accumulation at S phase at 0.5 uM after 24 hrs by propidium iodide staining based flow cytometry (reference value: 42%); type: functional
SF-268 = assay: Cytotoxicity against human SF268 cells after 48 hrs by trypan blue assay; type: functional, cell-based
Mus musculus [7] = assay: Toxicity in CD1 mouse assessed as weight loss at 40 mg/kg, ip after 3 to 4 weeks chronic treatment; type: organism-based; set-up: dose 40 mg/kg, route intraperitoneal; settings: in vivo
PC-3 [8] = assay: Induction of apoptosis in human PC3 cells assessed as cleaved caspase-3 containing cells at 50 uM after 24 hrs by FACS analysis (reference value: 3%); type: functional
BXPC-3 [9] = assay: Induction of apoptosis in human BxPC3 cells assessed as early apoptotic cells at 50 uM after 24 hrs by Annexin V/7-AAD staining based flow cytometry (reference value: 11%); type: functional
PC-3 [10] = assay: Cell cycle arrest in human PC3 cells assessed as accumulation at G2 phase at 50 uM after 24 hrs by propidium iodide staining based flow cytometry (reference value: 13%); type: functional
IGROV-1 [11] = assay: Growth inhibition of human IGROV1 cells after 48 hrs by SRB assay; type: functional; settings: IGROV-1, 48 h
MIA PaCa-2 = assay: Antitumor activity against human MIAPaCa2 cells xenografted in SCID mouse assessed as tumor weight at 70 mg/kg, ip for 3 consecutive days (reference value: 1225 +/- 308 mg); type: functional; settings: route intraperitoneal
BXPC-3 [12] = assay: Induction of apoptosis in human BxPC3 cells assessed as early apoptotic cells at 15 uM after 24 hrs by Annexin V/7-AAD staining based flow cytometry (reference value: 11%); type: functional
IGROV-1 [13] = assay: Induction of apoptosis in human IGROV1 cells assessed as early apoptotic cells at 5 uM after 24 hrs by Annexin V/7-AAD staining based flow cytometry (reference value: 9%); type: functional
LOX IMVI = assay: Growth inhibition of human LOXIMVI cells after 48 hrs by SRB assay; type: functional
HL-60(TB) = assay: Growth inhibition of human HL-60(TB) cells after 48 hrs by SRB assay; type: functional; settings: HL-60, 48 h
BXPC-3 [14] = assay: Cell cycle arrest in human BxPC3 cells assessed as accumulation at < G1 phase at 15 uM after 24 hrs by propidium iodide staining based flow cytometry (reference value: 9%); type: functional
BXPC-3 [15] = assay: Cell cycle arrest in human BxPC3 cells assessed as accumulation at >G2 phase at 15 uM after 24 hrs by propidium iodide staining based flow cytometry (reference value: 6%); type: functional
BXPC-3 [16] = assay: Induction of apoptosis in human BxPC3 cells assessed as early apoptotic cells at 5 uM after 24 hrs by Annexin V/7-AAD staining based flow cytometry (reference value: 11%); type: functional
IGROV-1 [17] = assay: Cell cycle arrest in human IGROV1 cells assessed as accumulation at < G1 phase at 5 uM after 24 hrs by propidium iodide staining based flow cytometry (reference value: 4%); type: functional
BXPC-3 [18] = assay: Cell cycle arrest in human BxPC3 cells assessed as accumulation at < G1 phase at 50 uM after 24 hrs by propidium iodide staining based flow cytometry (reference value: 9%); type: functional
IGROV-1 [19] = assay: Induction of apoptosis in human IGROV1 cells assessed as healthy cells at 5 uM after 24 hrs by Annexin V/7-AAD staining based flow cytometry (reference value: 86%); type: functional
IGROV-1 [20] = assay: Induction of apoptosis in human IGROV1 cells assessed as late apoptotic cells at 50 uM after 24 hrs by Annexin V/7-AAD staining based flow cytometry (reference value: 4%); type: functional
IGROV-1 [21] = assay: Induction of apoptosis in human IGROV1 cells assessed as cleaved caspase-3 containing cells at 15 uM after 24 hrs by FACS analysis (reference value: 4%); type: functional
BXPC-3 [22] = assay: Cell cycle arrest in human BxPC3 cells assessed as accumulation at G1 phase at 0.5 uM after 24 hrs by propidium iodide staining based flow cytometry (reference value: 41%); type: functional
BXPC-3 [23] = assay: Cell cycle arrest in human BxPC3 cells assessed as accumulation at G1 phase at 5 uM after 24 hrs by propidium iodide staining based flow cytometry (reference value: 41%); type: functional
BXPC-3 [24] = assay: Induction of apoptosis in human BxPC3 cells assessed as late apoptotic cells at 15 uM after 24 hrs by Annexin V/7-AAD staining based flow cytometry (reference value: 9%); type: functional
IGROV-1 [25] = assay: Induction of apoptosis in human IGROV1 cells assessed as early apoptotic cells at 0.5 uM after 24 hrs by Annexin V/7-AAD staining based flow cytometry (reference value: 9%); type: functional
PC-3 [26] = assay: Cell cycle arrest in human PC3 cells assessed as accumulation at >G2 phase at 5 uM after 24 hrs by propidium iodide staining based flow cytometry (reference value: 6%); type: functional
OVCAR-5 = assay: Growth inhibition of human OVCAR5 cells after 48 hrs by SRB assay; type: functional; settings: OVCAR-5, 48 h
PC-3 [27] = assay: Growth inhibition of human PC3 cells after 48 hrs by SRB assay; type: functional; settings: PC-3, 48 h
IGROV-1 [28] = assay: Cell cycle arrest in human IGROV1 cells assessed as accumulation at >G2 phase at 5 uM after 24 hrs by propidium iodide staining based flow cytometry (reference value: 21%); type: functional
PC-3 [29] = assay: Cell cycle arrest in human PC3 cells assessed as accumulation at < G1 phase at 0.5 uM after 24 hrs by propidium iodide staining based flow cytometry (reference value: 4%); type: functional
IGROV-1 [30] = assay: Cytotoxicity against human IGROV1 cells after 48 hrs by trypan blue assay; type: functional, cell-based
HCT-116 [31] = assay: Growth inhibition of human HCT116 cells after 48 hrs by SRB assay; type: functional; settings: HCT-116, 48 h
[32] = read-out: LC50 (the source's name)

CN1CCN(c2ccc(C(c3ccccc3)C34CC5CC(CC(C5)C3)C4)cc2)CC1 (configuration not stated)
inhibition in vivo at 40 mg/kg (BXPC-3 [1]): 37.8% | Activity (HCT-15): Active | Activity (HCT-116 [2]): Active | Activity (PC-3 [3]): 9% | Activity (Mus musculus [4]): Non-toxic | Activity (IGROV-1 [5]): 31% | GI50 (MCF7): 11.6 µM | TGI (MCF7): 16.9 µM | CC50 (MCF7; [32]): 3.17 µM | Activity (PC-3 [6]): 40% | Activity (SF-268): Active | Activity (Mus musculus [7]): Non-toxic | Activity (PC-3 [8]): 18% | Activity (BXPC-3 [9]): 15% | Activity (PC-3 [10]): 10% | GI50 (IGROV-1 [11]): 8.83 µM | TGI (IGROV-1 [11]): 58.5 µM | CC50 (IGROV-1 [11]; [32]): 100 µM | Activity (MIA PaCa-2): 642 mg | Activity (BXPC-3 [12]): 12% | Activity (IGROV-1 [13]): 8% | GI50 (LOX IMVI): 3.36 µM | LC50 (concentration killing 50% of cells) (LOX IMVI): 8.41 µM | TGI (LOX IMVI): 5.88 µM | GI50 (HL-60(TB)): 5.04 µM | LC50 (HL-60(TB)): 78.5 µM | TGI (HL-60(TB)): 9.63 µM | Activity (BXPC-3 [14]): 8% | Activity (BXPC-3 [15]): 5% | Activity (BXPC-3 [16]): 17% | Activity (IGROV-1 [17]): 5% | Activity (BXPC-3 [18]): 25% | Activity (IGROV-1 [19]): 88% | Activity (IGROV-1 [20]): 16% | Activity (IGROV-1 [21]): 30% | Activity (BXPC-3 [22]): 37% | Activity (BXPC-3 [23]): 43% | Activity (BXPC-3 [24]): 16% | Activity (IGROV-1 [25]): 8% | Activity (PC-3 [26]): 5% | GI50 (OVCAR-5): 8 µM | TGI (OVCAR-5): 41.9 µM | CC50 (OVCAR-5; [32]): 94.5 µM | GI50 (PC-3 [27]): 6.8 µM | TGI (PC-3 [27]): 32.9 µM | CC50 (PC-3 [27]; [32]): 100 µM | Activity (IGROV-1 [28]): 21% | Activity (PC-3 [29]): 9% | Activity (IGROV-1 [30]): Active | GI50 (HCT-116 [31]): 4.92 µM | TGI (HCT-116 [31]): 9.37 µM | CC50 (HCT-116 [31]; [32]): 100 µM
